The record followed here is ChEMBL document CHEMBL1201862, “PubChem BioAssay data set” (2004).

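In this assay, cells in 96-well plates receive the compound at five concentrations for 48 hours. Endpoints are linearly interpolated between the surrounding concentrations. At the GI50, growth is halved.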 Active and inactive are the calls of the source. No stated cut-off is given here; in the data, active = GI50 up to about 1.1 µM and inactive = higher. Where only a bound is given, the exact number is not on record here.

Test systems include MDA-MB-435; OVCAR-5; MCF7; EKVX; SK-MEL-28; SR; UO-31; NCI-H226; HCC 2998; NCI-H23; DU-145; NCI-H460; M14; OVCAR-8; OVCAR-3; SNB-75; SNB-19; RPMI-8226; SN12C; HT-29.
Assay in all cases: NCI tumour cell line growth inhibition, 48 h

Turning to `CCC(=O)NC(NNS(=O)(=O)c1ccc(C)cc1)(C(F)(F)F)C(F)(F)F`, the GI50 with MDA-MB-435 was 18.7 µM (inactive); with OVCAR-5 it was > 100 µM (inactive); with MCF7, 76 µM (inactive); with EKVX, > 100 µM (inactive); in the assay on SK-MEL-28 it was 20.3 µM (inactive); in the assay on SR it was 39.4 µM (inactive). Further, the GI50 with UO-31 is 34.2 µM (inactive); with NCI-H226, > 100 µM (inactive); with HCC 2998, > 10 µM (inactive); in the assay with NCI-H23, 48.9 µM (inactive); in the assay on DU-145, > 100 µM (inactive); with NCI-H460, 33.5 µM (inactive). The GI50 in the assay on M14 was 37.6 µM (inactive); in the assay on OVCAR-8, 44.9 µM (inactive); in the assay with OVCAR-3 it was > 10 µM (inactive); in the assay with SNB-75, 51.9 µM (inactive); in the assay on SNB-19, > 100 µM (inactive); in the assay on RPMI-8226 it was 54.3 µM (inactive).

As to `O=C1CCCC[C@H]1C(O)CC1CC(=O)N(c2ccccc2)C(=O)C1` (stereo partly drawn), the GI50 in the assay on MDA-MB-435, in the assay with OVCAR-5, in the assay on MCF7, in the assay with SN12C, in the assay on SK-MEL-28 and in the assay on SR was > 100 µM (inactive) each time. The GI50 with UO-31, in the assay with NCI-H226, in the assay with HT-29, with HCC 2998, in the assay on NCI-H23 and with DU-145 was > 100 µM (inactive) throughout. The GI50 with NCI-H460, with M14, with OVCAR-8, with OVCAR-3, with SNB-75 and in the assay on SNB-19 was > 100 µM (inactive) throughout. Moreover, the GI50 with RPMI-8226 is > 100 µM (inactive).

As to `CC(=O)c1c(C(F)(F)F)[n+]([O-])c2cc(Cl)c(Cl)cc2[n+]1[O-]`, the GI50 was 1.3 µM (inactive) in the assay with MDA-MB-435; 1.63 µM (inactive) with OVCAR-5; 0.265 µM (active) in the assay with MCF7; 1.29 µM (inactive) in the assay on EKVX; 1.12 µM (inactive) with SN12C; 1.88 µM (inactive) in the assay with SK-MEL-28. Also, the GI50 in the assay on SR was 0.0196 µM (active); in the assay with UO-31, 0.41 µM (active); in the assay with NCI-H226, 1.46 µM (inactive); in the assay with HT-29 it was 0.792 µM (active); in the assay on HCC 2998, 0.184 µM (active); with NCI-H23, 0.938 µM (active). Further, the GI50 in the assay on DU-145 was 1.26 µM (inactive); with NCI-H460 it was 0.242 µM (active); with M14, 1.21 µM (inactive); with OVCAR-8, 0.531 µM (active); in the assay with OVCAR-3, 1.36 µM (inactive); in the assay with SNB-75 it was 1.07 µM (active). Also, the GI50 in the assay on SNB-19 is 0.83 µM (active); with RPMI-8226, 0.129 µM (active).

For the compound `Cc1ccc(S(=O)(=O)n2c3c(c4ccccc42)CCN2C[C@H]([C@H](C)Br)CC[C@@H]32)cc1`, the GI50 in the assay on MDA-MB-435 was 32.1 µM (inactive); in the assay on OVCAR-5, > 100 µM (inactive); with MCF7, 91.8 µM (inactive); with EKVX, > 100 µM (inactive); in the assay with SK-MEL-28 it was > 100 µM (inactive); in the assay on SR it was 4.01 µM (inactive). For the same compound, the GI50 was > 100 µM (inactive) in the assay on UO-31; > 100 µM (inactive) in the assay with NCI-H226; > 100 µM (inactive) in the assay with HT-29; 82.8 µM (inactive) in the assay on HCC 2998; > 100 µM (inactive) in the assay on NCI-H23; > 100 µM (inactive) in the assay with DU-145. In addition, the GI50 in the assay on NCI-H460, with M14, in the assay with OVCAR-8, with OVCAR-3, with SNB-75 and in the assay with SNB-19 was > 100 µM (inactive) throughout. The GI50 with RPMI-8226 is 13.1 µM (inactive).

As for `COC(=O)c1ccc([N+](=O)[O-])c(O)c1`, the GI50 in the assay on MDA-MB-435 was 8.55 µM (inactive); in the assay on OVCAR-5, > 100 µM (inactive); in the assay on MCF7, > 100 µM (inactive); in the assay on EKVX, > 100 µM (inactive); in the assay with SN12C, > 100 µM (inactive); in the assay on SK-MEL-28 it was > 100 µM (inactive). Also, the GI50 with SR, in the assay on UO-31, with NCI-H226, in the assay on HT-29, in the assay with HCC 2998 and in the assay on NCI-H23 was > 100 µM (inactive) in each case. In addition, the GI50 in the assay on DU-145, in the assay on NCI-H460, with M14, in the assay on OVCAR-8, with OVCAR-3 and in the assay on SNB-75 was > 100 µM (inactive) each time. The GI50 in the assay with SNB-19 and with RPMI-8226 was > 100 µM (inactive) throughout.

In the case of `CC(=O)Oc1ccc2c(c1)oc1c3ccc(OC(C)=O)cc3n(C)c(=O)c21`, the GI50 in the assay on MDA-MB-435 is 37.8 µM (inactive); in the assay on OVCAR-5 it was 51.9 µM (inactive); with MCF7, 35.6 µM (inactive); in the assay on EKVX, 13.2 µM (inactive); in the assay with SN12C, 27.2 µM (inactive); in the assay with SK-MEL-28, 16.3 µM (inactive). Besides, the GI50 in the assay on SR is 33.5 µM (inactive); with UO-31, 50.1 µM (inactive); with NCI-H226, 10.2 µM (inactive); in the assay with HT-29 it was 31.8 µM (inactive); with HCC 2998 it was 17.2 µM (inactive); in the assay on NCI-H23 it was 46.3 µM (inactive). In addition, the GI50 in the assay with DU-145 was 24 µM (inactive); in the assay on NCI-H460, 36.3 µM (inactive); in the assay on M14, 10.3 µM (inactive); in the assay with OVCAR-8 it was 22.5 µM (inactive); in the assay on OVCAR-3, 32.5 µM (inactive); in the assay on SNB-75, 1.14 µM (inactive). In addition, the GI50 in the assay on SNB-19 is > 100 µM (inactive).

`CC(=O)OCC1OC(n2c(S)nc(-c3ccccc3)c(C#N)c2=O)C(OC(C)=O)C(OC(C)=O)C1OC(C)=O` (stereo not drawn): the GI50 with MDA-MB-435, with OVCAR-5, in the assay on MCF7, in the assay on EKVX, in the assay with SN12C and in the assay on SK-MEL-28 was > 100 µM (inactive) each time. Further, the GI50 in the assay with SR, with UO-31, in the assay with NCI-H226, with HT-29, in the assay with HCC 2998 and in the assay on NCI-H23 was > 100 µM (inactive) throughout. Further, the GI50 with DU-145 was > 100 µM (inactive); in the assay with NCI-H460, > 100 µM (inactive); in the assay with M14, > 100 µM (inactive); in the assay with OVCAR-8, > 100 µM (inactive); in the assay with OVCAR-3 it was > 100 µM (inactive); in the assay with SNB-75 it was 98.9 µM (inactive). Further, the GI50 in the assay on SNB-19 and in the assay with RPMI-8226 was > 100 µM (inactive) throughout.

For the compound `CN(C)CCOc1ccc(-c2c(Oc3ccc(Cl)cc3)c(=O)oc3ccccc23)cc1`, the GI50 in the assay with MDA-MB-435 was 2.67 µM (inactive); with OVCAR-5 it was 15.8 µM (inactive); in the assay on MCF7, 4.41 µM (inactive); with EKVX, 12.3 µM (inactive); in the assay with SN12C it was 13.7 µM (inactive); in the assay with SK-MEL-28, 3.27 µM (inactive). Besides, the GI50 in the assay with SR was 4.09 µM (inactive); in the assay on UO-31 it was 5.43 µM (inactive); with NCI-H226, > 35.6 µM (inactive); in the assay on HT-29, > 20.5 µM (inactive); in the assay with HCC 2998, 3.15 µM (inactive); with NCI-H23, 14.5 µM (inactive). Further, the GI50 in the assay on DU-145 is 10.5 µM (inactive); in the assay with NCI-H460 it was 7.35 µM (inactive); in the assay with M14 it was 2.21 µM (inactive); in the assay with OVCAR-8, > 24.5 µM (inactive); in the assay with OVCAR-3, 12.4 µM (inactive); in the assay on SNB-75, 6.56 µM (inactive). Besides, the GI50 in the assay with SNB-19 is 16.9 µM (inactive); in the assay on RPMI-8226, 8.43 µM (inactive).

With `CC1C[C@]2(C)C(=O)N(c3ccccc3)C(=N)[C@@H]2N(C)c2ccccc21` (stereo partly drawn), the GI50 in the assay on MDA-MB-435 was > 100 µM (inactive); in the assay with OVCAR-5, > 100 µM (inactive); in the assay with MCF7, > 100 µM (inactive); with EKVX, > 100 µM (inactive); in the assay on SN12C it was 10.8 µM (inactive); in the assay on SK-MEL-28, > 100 µM (inactive). Further, the GI50 with SR, in the assay with UO-31, in the assay with NCI-H226, with HT-29, with HCC 2998 and with NCI-H23 was > 100 µM (inactive) each time. The GI50 was > 100 µM (inactive) in the assay on DU-145; > 100 µM (inactive) with NCI-H460; > 100 µM (inactive) with M14; > 100 µM (inactive) with OVCAR-8; 70.1 µM (inactive) in the assay on OVCAR-3; 79.3 µM (inactive) in the assay on SNB-75. The GI50 with SNB-19 and with RPMI-8226 was > 100 µM (inactive) each time.

On to `C=C1C(=O)O[C@H]2[C@H]1CC(=O)/C(C)=C/CC[C@@]1(C)O[C@@H]21`, for which the GI50 in the assay on MDA-MB-435 was 1.53 µM (inactive); in the assay on OVCAR-5, 2.15 µM (inactive); in the assay with MCF7 it was 0.392 µM (active); in the assay with SN12C it was 1.66 µM (inactive); in the assay with SK-MEL-28, 0.603 µM (active); with SR it was 0.541 µM (active). The GI50 in the assay with UO-31 was 0.879 µM (active); in the assay on NCI-H226, 4.26 µM (inactive); in the assay on HT-29, 1.13 µM (inactive); with HCC 2998, 2.4 µM (inactive); with NCI-H23 it was 1.67 µM (inactive); in the assay on DU-145, 6.5 µM (inactive). The GI50 in the assay on NCI-H460 is 10.9 µM (inactive); in the assay with M14 it was 0.37 µM (active); in the assay with OVCAR-8, 2.01 µM (inactive); in the assay with OVCAR-3 it was 0.224 µM (active); in the assay on SNB-75, 16.7 µM (inactive); with SNB-19 it was 3.2 µM (inactive).
